{"source": "patent US10954252B1", "about": "“Inhibitors of human immunodeficiency virus replication” (ViiV HEALTHCARE UK (NO.5) LIMITED, priority 2017, dated 2021)", "key": {"[1]": {"tested_on": "recombinant NL4-3 virus (nef section replaced with Renilla luciferase gene) in MT-2 cells", "assay": "HIV cell culture assay (antiviral activity, luciferase readout)", "format": "cell-based", "settings": "MT-2 cells infected for 4-5 days with recombinant NL4-3 luciferase virus", "in_short": "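Serially diluted compounds were present throughout a 4-5 day infection of MT-2 cells by recombinant NL4-3 whose nef region partly encodes Renilla luciferase. Antiviral activity was taken from live-cell luciferase signal, with the 50% effective concentration fitted by the exponential median effect equation.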"}, "[2]": {"assay": "Compound cytotoxicity, XTT-based colorimetric assay", "format": "cell-based", "settings": "human, uninfected MT2 cells, Table 1, day 4, XTT", "in_short": "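XTT colorimetric read-out on day 4 gave CC50 values, using MT2 cells left uninfected but otherwise handled as in the antiviral assay.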"}}}
{"smiles": "CC(C)c1ccc(-c2cc3[nH]ncc3nc2C(Cc2cc(F)cc(F)c2)NC(=O)Cn2nc(C(F)F)c3c2C(F)(F)[C@@H]2C[C@H]32)cn1", "note": "(single isomer, unassigned) [Example 3.9]", "values": [{"measurement": "EC50", "setting": "[1]; Renilla, NL43, Table 1", "result": 9.9, "unit": "nM"}, {"measurement": "CC50 at 4 days", "setting": "[2]", "result": 9.6, "unit": "µM"}]}
{"smiles": "O=C(Cn1nc(C(F)F)c2c1C(F)(F)[C@@H]1C[C@H]21)NC(Cc1cc(F)cc(F)c1)c1nc2cn[nH]c2cc1-c1ccc(OC(F)F)cc1", "note": "(single isomer, unassigned) [Example 3.10]", "values": [{"measurement": "EC50", "setting": "[1]; Renilla, NL43, Table 1", "result": 320, "unit": "nM"}, {"measurement": "CC50 at 4 days", "setting": "[2]", "result": 6.8, "unit": "µM"}]}
{"smiles": "O=C(Cn1nc(C(F)F)c2c1C(F)(F)[C@@H]1C[C@H]21)NC(Cc1cc(F)cc(F)c1)c1nc2cn[nH]c2cc1-c1ccc(C2CC2)cc1", "note": "(single isomer, unassigned) [Example 3.11]", "values": [{"measurement": "EC50", "setting": "[1]; Renilla, NL43, Table 1", "result": 670, "unit": "nM"}, {"measurement": "CC50 at 4 days", "setting": "[2]", "result": 4.2, "unit": "µM"}]}
{"smiles": "Cn1nc(NS(C)(=O)=O)c2c(Cl)ccc(-c3cc4[nH]cnc4nc3C(Cc3cc(F)cc(F)c3)NC(=O)Cn3nc(C(F)F)c4c3C(F)(F)[C@@H]3C[C@H]43)c21", "note": "(single isomer, unassigned) [Example 4.1]", "values": [{"measurement": "EC50", "setting": "[1]; Table 1", "result": 230, "unit": "nM"}, {"measurement": "CC50 at 4 days", "setting": "[2]", "result": "> 10", "unit": "µM"}]}
{"smiles": "Cn1nc(NS(C)(=O)=O)c2c(Cl)ccc(-c3cc4[nH]ccc4nc3C(Cc3cc(F)cc(F)c3)NC(=O)Cn3nc(C(F)F)c4c3C(F)(F)[C@@H]3C[C@H]43)c21", "note": "(single isomer, unassigned) [Example 5.1]", "values": [{"measurement": "EC50", "setting": "[1]; Table 1", "result": 220, "unit": "nM"}, {"measurement": "CC50 at 4 days", "setting": "[2]", "result": "> 10", "unit": "µM"}]}
{"smiles": "Cn1nc(NS(C)(=O)=O)c2c(Cl)ccc(-c3cc4cn[nH]c4nc3C(Cc3cc(F)cc(F)c3)NC(=O)Cn3nc(C(F)F)c4c3C(F)(F)[C@@H]3C[C@H]43)c21", "note": "(single isomer, unassigned) [Example 6.1]", "values": [{"measurement": "EC50", "setting": "[1]; Table 1", "result": 1020, "unit": "nM"}, {"measurement": "CC50 at 4 days", "setting": "[2]", "result": "> 10", "unit": "µM"}]}
{"smiles": "O=C(Cn1nc(C(F)F)c2c1C(F)(F)[C@@H]1C[C@H]21)NC(Cc1cc(F)cc(F)c1)c1ncc2nc[nH]c2c1-c1ccc2scnc2c1", "note": "(single isomer, unassigned) [Example 7.1]", "values": [{"measurement": "EC50", "setting": "[1]; Table 1", "result": 140, "unit": "nM"}, {"measurement": "CC50 at 4 days", "setting": "[2]", "result": 16.2, "unit": "µM"}]}
{"smiles": "Cn1nc(NS(C)(=O)=O)c2c(Cl)ccc(-c3c(C(Cc4cc(F)cc(F)c4)NC(=O)Cn4nc(C(F)F)c5c4C(F)(F)[C@@H]4C[C@H]54)ncc4[nH]cnc34)c21", "note": "(single isomer, unassigned) [Example 7.3]", "values": [{"measurement": "EC50", "setting": "[1]; Table 1", "result": 10000, "unit": "nM"}, {"measurement": "CC50 at 4 days", "setting": "[2]", "result": "> 10", "unit": "µM"}]}
{"smiles": "Cn1nc(NS(C)(=O)=O)c2c(Cl)ccc(-c3cc4ccccc4nc3C(Cc3cc(F)cc(F)c3)NC(=O)Cn3nc(C(F)F)c4c3C(F)(F)[C@@H]3C[C@H]43)c21", "note": "(single isomer, unassigned) [Example 8.1]", "values": [{"measurement": "EC50", "setting": "[1]; Table 1", "result": 0.2, "unit": "nM"}, {"measurement": "CC50 at 4 days", "setting": "[2]", "result": "> 10", "unit": "µM"}]}
{"smiles": "Cn1nc(NS(C)(=O)=O)c2c(Cl)ccc(-n3c([C@H](Cc4cc(F)cc(F)c4)NC(=O)Cn4nc(C(F)F)c5c4C(F)(F)[C@@H]4C[C@H]54)nc4ncccc4c3=O)c21", "note": "(single isomer, unassigned) [Example 10.39]", "values": [{"measurement": "EC50", "setting": "[1]; Table 1", "result": 6.98, "unit": "nM"}, {"measurement": "CC50 at 4 days", "setting": "[2]", "result": "> 10", "unit": "µM"}]}
{"smiles": "CS(=O)(=O)Nc1nn(CC(F)F)c2c(-n3c([C@H](Cc4cc(F)cc(F)c4)NC(=O)Cn4nc(C(F)F)c5c4C(F)(F)C4CC54)nc4ncccc4c3=O)ccc(Cl)c12", "note": "(single isomer, unassigned) [Example 14.1]", "values": [{"measurement": "EC50", "setting": "[1]; Renilla, NL43, Table 1", "result": 49, "unit": "nM"}, {"measurement": "CC50 at 4 days", "setting": "[2]", "result": "> 10", "unit": "µM"}]}
{"smiles": "Cn1nc(NS(C)(=O)=O)c2c(Cl)ccc(-n3c([C@H](Cc4cc(F)cc(F)c4)NC(=O)Cn4nc(C(F)F)c5c4C(F)(F)[C@@H]4C[C@H]54)nc4ccccc4c3=O)c21", "note": "(single isomer, unassigned) [Example 16]", "values": [{"measurement": "EC50", "setting": "[1]; Renilla, NL43, Table 1", "result": 49, "unit": "nM"}, {"measurement": "CC50 at 4 days", "setting": "[2]", "result": "> 10", "unit": "µM"}]}
{"smiles": "COc1ccc2c(=O)n(-c3ccc(Cl)c4c(NS(C)(=O)=O)nn(C)c34)c([C@H](Cc3cc(F)cc(F)c3)NC(=O)Cn3nc(C(F)F)c4c3C(F)(F)[C@@H]3C[C@H]43)nc2c1", "note": "(single isomer, unassigned) [Example 17]", "values": [{"measurement": "EC50", "setting": "[1]; Renilla, NL43, Table 1", "result": 61, "unit": "nM"}, {"measurement": "CC50 at 4 days", "setting": "[2]", "result": "> 10", "unit": "µM"}]}
{"smiles": "Cn1nc(NS(C)(=O)=O)c2c(Cl)ccc(-n3c([C@H](Cc4cc(F)cc(F)c4)NC(=O)Cn4nc(C(F)F)c5c4C(F)(F)[C@@H]4C[C@H]54)nc4cccc(F)c4c3=O)c21", "note": "(single isomer, unassigned) [Example 19]", "values": [{"measurement": "EC50", "setting": "[1]; Renilla, NL43, Table 1", "result": 130, "unit": "nM"}, {"measurement": "CC50 at 4 days", "setting": "[2]", "result": "> 8", "unit": "µM"}]}
